Ten molecules from patent US11453677B2 (priority 2016, dated 2022) can be followed below.

Type in all cases: cell-based
Assay [1] relates to influenza virus H3N2 in MDCK cells. Conditions: MOI 0.005, 48 hours, neuraminidase activity, read-out: NA_VIR_H3N2 EC50. An excerpt:
Influenza Virus Neuraminidase Assay (NA Assay)

The subject of assay [2] is influenza A virus minigenome (PB2, PB1, PA, NP) RNP_Alaska in 293T cells. The assay is described as follows: cells. Conditions: HEK-293T, 48 h, read-out: RNP_Alaska EC50.
Assay [3] deals with influenza A virus minigenome (PB2, PB1, PA, NP) RNP_CAL in 293T cells. The assay is described as follows: cells. Conditions: HEK-293T, 48 h, read-out: RNP_CAL_EC50.
Assay [4] concerns influenza virus minigenome (PB2, PB1, PA, NP) RNP_Hubei in 293T cells. The assay is described as follows: cells. Conditions: unidentified influenza virus, HEK-293T, 48 h, read-out: RNP_Hubei EC50.

As for `CNC(=O)c1cnc2n1C[C@H](C(c1ccccc1)c1ccccc1)n1ccc(=O)c(O)c1-2` [Example 69, (S)-6-benzhydryl-11-hydroxy-N-methyl-10-oxo-5,6-dihydro-10H-imidazo[1,2-a]pyrido[2,1-c]pyrazine-3-carboxamide], the EC50 in assay [1] is over 50000 nM.
Same read-out and setting: in the case of `COCCNC(=O)c1cnc2n1C[C@H](C(c1ccccc1)c1ccccc1)n1ccc(=O)c(O)c1-2` [Example 71, (S)-6-benzhydryl-11-hydroxy-N-(2-methoxyethyl)-10-oxo-5,6-dihydro-10H-imidazo[1,2-a]pyrido[2,1-c]pyrazine-3-carboxamide] it was over 50000 nM.
For `O=c1cnn2c(c1O)-c1nccn1C[C@@H]2[C@H](c1ccc(F)cc1)c1cccc(F)c1` [Example 26, (S)-6-((R)-(3-fluorophenyl)(4-fluorophenyl)methyl)-11-hydroxy-5,6-dihydro-10H-imidazo[2′,1′:3,4]pyrazino[1,2-b]pyridazin-10-one], the figures for the EC50 in assay [2], in assay [3] and in assay [4] were 27 nM, 38 nM and 51 nM, respectively.
The corresponding values for `O=c1ccn2c(c1O)-c1ncc(CN3CCSCC3)n1C[C@@H]2C(c1ccccc1)c1ccccc1` [Example 62, (S)-6-benzhydryl-11-hydroxy-3-(thiomorpholinomethyl)-5,6-dihydro-10H-imidazo[1,2-a]pyrido[2,1-c]pyrazin-10-one] are 1900 nM, 640 nM and 1500 nM.
As to `Cc1ccccc1[C@H](c1ccc(F)cc1Br)[C@H]1Cn2ccnc2-c2c(O)c(=O)cnn21` [Example 35, (S)-6-((R)-(2-bromo-4-fluorophenyl)(o-tolyl)methyl)-11-hydroxy-5,6-dihydro-10H-imidazo[2′,1′:3,4]pyrazino[1,2-b]pyridazin-10-one], the EC50 stood at 98 nM in assay [2], 50 nM in assay [3] and 110 nM in assay [4].
Turning to `O=c1ccn2c(c1O)-c1ncc(C(F)F)n1C[C@@H]2C(c1ccccc1)c1ccccc1` [Example 57, (S)-6-benzhydryl-3-(difluoromethyl)-11-hydroxy-5H-imidazo[1,2-a]pyrido[2,1-c]pyrazin-10(6H)-one], the EC50 in assay [2] was 220 nM; in assay [3], 180 nM; in assay [4], 580 nM.
Taken in the same sequence, the figures for `O=c1cnn2c(c1O)-c1nccn1C[C@@H]2C(c1cccc(Cl)c1)c1cccc(Cl)c1` [Example 15, (S)-6-(bis(3-chlorophenyl)methyl)-11-hydroxy-5H-imidazo [2′,1′:3,4] pyrazino [1,2-b]pyridazin-10(6H)-one] were 40 nM, 25 nM and 19 nM.
Taken in the same sequence, the figures for `N#Cc1cnc2n1C[C@H](C(c1ccc(F)cc1)c1ccc(F)cc1)n1ncc(=O)c(O)c1-2` [Example 49, (S)-6-(bis(4-fluorophenyl)methyl)-11-hydroxy-10-oxo-5,6-dihydro-10H-imidazo[2′,1′:3,4]pyrazino[1,2-b]pyridazine-3-carbonitrile] were 870 nM, 820 nM and 560 nM.
The corresponding values for `O=c1cnn2c(c1O)-c1nccn1C[C@@H]2C(c1cccc(F)c1)c1cccc(F)c1` [Example 23, (S)-6-(bis(3-fluorophenyl)methyl)-11-hydroxy-5,6-dihydro-10H-imidazo[2′,1′:3,4]pyrazino[1,2-b]pyridazin-10-one] are 23 nM, 39 nM and 36 nM.
For the molecule `O=c1cnn2c(c1O)-c1nccn1C[C@@H]2[C@@H](c1ccc(F)cc1)c1cc(F)cc(F)c1` [Example 34, (S)-6-((S)-(3,5-difluorophenyl)(4-fluorophenyl)methyl)-11-hydroxy-5H-imidazo[2′,1′:3,4]pyrazino[1,2-b]pyridazin-10(6H)-one], the results for the EC50 in assay [2], in assay [3] and in assay [4] were 33 nM, 25 nM and 34 nM, respectively.
